Measurements published in patent US11191756B2, “Dosing and effect of C5a antagonist with ANCA-associated vasculitis” (CHEMOCENTRYX, INC., priority 2018, dated 2021).
“Also recorded” adds a separate entry of the source.

Tests used:
Type in all cases: in vivo, human
properdin = assay: Plasma properdin by ELISA in AAV patients of the CLEAR trial; conditions: for Properdin, change in plasma level (Summary of Results): AAV patients, 12 week treatment period, all also received cyclophosphamide or rituximab; for circulating properdin levels, change from baseline: any treatment group, 6 h, days 8, 29, 85
Experimental: (§1) The CLEAR trial (Jayne D R W, et al. JASN 2017; 28:2756) compared 3 regimens in 67 patients with AAV: (1) full dose prednisone (60 mg daily, tapered); (2) avacopan 30 mg twice daily plus low dose prednisone (20 mg, tapered); (3) avacopan 30 mg twice daily plus no prednisone. All also received either cyclophosphamide or rituximab. There was a 12-week treatment period with 12 week follow-up period
(§2) Plasma samples were collected from AAV patients who participated in CLEAR study at baseline and at 6 hour, Days 8, 29, and 85 during treatment. Plasma samples from 20 health controls matched for age, gender and ethnic background were collected at UNC Kidney Center.
(§3) EDTA whole blood was kept on ice immediately after collection and centrifuged at 4° C. for plasma preparation. Plasma samples were stored at −80° C. freezer until analysis for complement Bb, C5a, […] and properdin by ELISA in one thaw.
(§4) Paired t-test was used for within group comparison and unpaired t-test was used for between group comparisons using log transformed data. P-values were corrected for multiple comparisons.

sC5b-9 = assay: Plasma sC5b-9 by ELISA in AAV patients of the CLEAR trial; conditions: for sC5b-9, change in plasma level (Summary of Results): AAV patients, 12 week treatment period, all also received cyclophosphamide or rituximab; for circulating sC5b-9 levels, change from baseline: any treatment group, 6 h, days 8, 29, 85
Experimental: as §1, §2, §3, §4

complement factor Bb = assay: Plasma complement factor Bb by ELISA in AAV patients of the CLEAR trial; conditions: for Bb, change in plasma level (Summary of Results): AAV patients, 12 week treatment period, all also received cyclophosphamide or rituximab
Experimental: as §1, §2, §3, §4

complement factor C5a = assay: Plasma complement factor C5a by ELISA in AAV patients of the CLEAR trial; conditions: for C5a, change in plasma level (Summary of Results): AAV patients, 12 week treatment period, all also received cyclophosphamide or rituximab
Experimental: as §1, §2, §3, §4

patients with AAV = assay: CLEAR trial clinical outcome in ANCA-associated vasculitis; conditions: for clinical benefit / improvement in AAV: 12 week treatment period, avacopan 30 mg twice daily
From the text: (A) plots the Birmingham Vasculitis Activity Score; (B) plots the urinary albumin to creatine ration; (C) plots the EuroQOL-5D-5L visual analgue scale; (D) plots the Short Form-36 physical functioning results; and (E) plots the Short Form-36 role emotional results. Patients receiving high dose prednisone are plotted with diamonds; patients receiving avacopan with low dose prednisone are plotted with squares; and patients receiving avacopan with no prednisone are plotted with triangles.
as §1

complement factor C3a = assay: Plasma complement factor C3a by ELISA in AAV patients of the CLEAR trial; conditions: for C3a, change in plasma level (Summary of Results): AAV patients, 12 week treatment period, all also received cyclophosphamide or rituximab; for C3a levels compared to baseline: full dose prednisone
Experimental: as §1, §2, §3, §4

[1] = CLEAR trial, AAV patients, avacopan with low dose or no prednisone
[2] = day 85, when prednisone was tapered

Compound	Properdin, change in plasma level (Summary of Results) (properdin)	circulating properdin levels, change from baseline (properdin)	sC5b-9, change in plasma level (Summary of Results) (sC5b-9)	circulating sC5b-9 levels, change from baseline (sC5b-9)	Bb, change in plasma level (Summary of Results) (complement factor Bb)	C5a, change in plasma level (Summary of Results) (complement factor C5a)	C3a, change in plasma level (Summary of Results) (complement factor C3a)	further results
Cc1ccc(NC(=O)[C@H]2CCCN(C(=O)c3c(C)cccc3F)[C@H]2c2ccc(NC3CCCC3)cc2)cc1C(F)(F)F [Avacopan, avacopan]	No changes	No statistically significant changes	No changes	did not change; also recorded: No statistically significant changes	No changes	No changes	No changes	Bb levels during treatment compared to pre-dose (complement factor Bb; avacopan 30 mg twice daily with low dose or no prednisone, 6 h, days 8, 29, 85): did not impact; also recorded: No change; C5a levels during treatment compared to baseline (complement factor C5a; avacopan 30 mg twice daily with low or no prednisone, 6 h, days 8, 29, 85): did not impact; also recorded: No change; clinical benefit / improvement in AAV (patients with AAV): achieved clinical benefit; also recorded: rapid improvement; clinical benefit / improvement in AAV (patients with AAV; listed as avacopan): rapidly improves; disease activity (Birmingham Vasculitis Activity Score, urinary albumin to creatinine ratio) (patients with AAV; [1]): rapid decrease; health-related quality of life (EuroQOL-5D-5L, Short Form-36) (patients with AAV; [1]): significant improvement; C3a levels during treatment compared to baseline (complement factor C3a; avacopan 30 mg twice daily without prednisone, 6 h, days 8, 29, 85): did not impact; also recorded: No change
C[C@]12C=CC(=O)C=C1CC[C@@H]1[C@@H]2C(=O)C[C@@]2(C)[C@H]1CC[C@]2(O)C(=O)CO [Prednisone, prednisone]	No changes	No statistically significant changes	No changes	No statistically significant changes	↓	↓	↓	Bb levels (complement factor Bb; [2]): rising again; also recorded: rose again; Bb levels compared to pre-dose (complement factor Bb; days 8 and 29, full dose prednisone 60 mg daily, tapered): decreased significantly; C5a levels compared to baseline (complement factor C5a; day 8 and 29, high dose prednisone): decreased significantly; also recorded: decrease; C5a levels (complement factor C5a; [2]): rising again; also recorded: rose again; C3a levels compared to baseline (complement factor C3a; 6 hours): decreased; C3a levels (complement factor C3a; [2]): rising again; also recorded: rose again; C3a levels compared to baseline (complement factor C3a; days 8 and 29): decreased significantly; also recorded: further decreased
